According to paper PMC7613620, “Reaction hijacking of tyrosine tRNA synthetase as a whole-of-life-cycle antimalarial strategy” (Science (New York, N.Y.), 2022):
Like-named read-outs stand apart in the source and are kept apart here.

What was measured:
[1] = target: PfYRS (Plasmodium falciparum, UniProt Q8IAR7); test: Tyrosine acylation of cognate tRNATyr by PfYRS; format: biochemical
[2] = system: PfYRS knockdown line; test: Growth inhibition of aptamer-regulatable PfYRS knockdown line (luciferase, 72 h); format: cell-based, Plasmodium falciparum; conditions: for IC50: Plasmodium falciparum
Excerpt: 674 Generation and analysis of PfYRS knock-down transfectants
675 A conditional regulatable line for the cytosolic PfYRS (PF3D7_0807900) was generated by integrating the
676 gene regulatable system, TetR-DOZI-RNA aptamer module at the 3'-end of the target gene, in P. falciparum
677 parasites using CRISPR-Cas9 and homology-driven repair (55, 56). A line harbourbing an aptamer-
678 regulatable fluorescent protein (eYFP) integrated in the cg6 locus is used as the control (55). Transfection
679 into parasites was carried out by preloading RBCs with the donor vector as described previously (57).
680 Briefly, 50 μg of purified plasmid DNA was mixed with human RBCs and subjected to 8 square wave
681 electroporation pulses of 365 V for 1 ms each, separated by 0.1 s in a 0.2 cm cuvette. The plasmid DNA
682 preloaded cells were inoculated with NF54 expressing Cas9 and T7 RNA polymerase. […]
696 Stock solutions of ML901, DHA or borrelidin (Cayman Chemicals) were dispensed into 96-well U-bottom
697 BD Falcon™ plates and serially diluted in complete medium to yield final concentrations ranging from 20-
698 0.08 nM. Synchronous ring-stage YRScyt conditional knockdown line and the aptamer-regulatable control
699 line in varying aTc concentrations (high = 50 or 500 nM, low = 1 nM, and no aTc) were distributed into
700 the drug plate. Lowest drug treatment and a lethal dose of chloroquine (200 nM) served as reference
701 controls. Growth inhibition was analysed after 72 h using the Renilla-Glo(R) Luciferase Assay System (ref
702 no E2750 Promega) and the GloMax® Discover Multimode Microplate Reader (Promega), and IC50 values
703 were obtained from corrected dose-response curves using GraphPad Prism (version 8; GraphPad Software). […]
706 CRISPR/Cas9 was used to generate parasites encoding the S234C mutation in exon 2 of PfYRS, as shown
707 in Suppl Figure 6. Two guide RNAs (gRNA1: […] and gRNA2:
708 […]) were selected using Benchling (benchling.com), and cloned into the
709 pDC2-coCas9-gRNA plasmid essentially as described previously (58). A donor template of 645 bp,
710 encompassing the majority of the 708 bp exon 2, was synthesized (ThermoFisher) and cloned into the
711 AatII/EcoRI sites of both the pDC2-coCas9-gRNA1 and pDC2-coCas9-gRNA2 plasmids. In addition to
712 the TCC>TGC (S234C) mutation, additional silent shield mutations were introduced to prevent gRNA-
713 Cas9 complex binding, as shown in Suppl Figure 6. Ring-stage P. falciparum parasites (Dd2 strain) at 10%
714 parasitemia (150 µL of packed cells) were transfected with 50 µg of plasmid DNA using a BioRad Gene
715 Pulser II (310 V, 950 µF), and selected with 5 nM WR99210 (Jacobus Pharmaceuticals) for 8 days, after
716 which culture was continued without drug pressure until transfectants were obtained. Clones of the
717 PfYRSS234C mutant parasites were isolated by limiting dilution and verified by Sanger sequencing.
719 Protein translation assay
720 P. falciparum Cam 3.II_Rev (25) schizont- (43-48 h p.i.) infected RBCs were pre-incubated with inhibitor
Using a modification of a published procedure (14), the
722 cells were labelled with O-propargyl-puromycin (OPP; 4 µM) for 1 h, washed 3x (PBS +3% serum) and
723 then fixed for 10 minutes (4% formaldehyde/0.02% glutaraldehyde in PBS). The click reaction was
724 performed for 1 h in the presence of CuSO4 (0.1 mM), THPTA (0.5 mM) and sodium ascorbate (5 mM) to
725 bring about azide-alkyne cycloaddition to Alexa Fluor 488 azide (0.1 µM). Flow cytometry was performed
726 using the FITC and Cy™5.5 channels to detect the Alexa Fluor 488 and PI, respectively.
729 Cam 3.II_Rev (25) trophozoite-infected RBCs (25-30 h p.i.) were incubated with inhibitor for 3 h at 10%
730 hematocrit and 5% parasitemia. The RBC pellet was washed 3 x in PBS + cOmplete. Cells were centrifuged
731 at 380 x g for 5 min and the pelleted cells lysed by resuspension in PBS + 0.05% saponin for 5 min on ice.

Sequence of PfYRS (Q8IAR7 entry or part of it): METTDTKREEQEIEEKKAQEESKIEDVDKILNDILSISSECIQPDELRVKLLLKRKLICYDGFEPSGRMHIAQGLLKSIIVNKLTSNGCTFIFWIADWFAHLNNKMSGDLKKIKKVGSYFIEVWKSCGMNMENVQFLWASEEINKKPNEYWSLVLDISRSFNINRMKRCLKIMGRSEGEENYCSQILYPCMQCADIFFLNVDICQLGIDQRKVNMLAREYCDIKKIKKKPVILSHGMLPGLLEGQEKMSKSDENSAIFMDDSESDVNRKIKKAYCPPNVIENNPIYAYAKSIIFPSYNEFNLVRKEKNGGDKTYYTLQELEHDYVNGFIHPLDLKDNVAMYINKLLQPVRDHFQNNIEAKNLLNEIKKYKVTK

Nc1ncnc2c1c(OC(F)F)nn2[C@@H]1O[C@H](COS(N)(=O)=O)[C@@H](O)[C@H]1O [ML901]
IC50 [1]: 53000 nM
IC50 ([2]; as stated in main text, aTc condition not given, read-out: IC50 against the knockdown parasites): 0.4 nM
IC50 ([2]; high aTc (50 nM), read-out: IC50 against PfYRS knockdown line): 3.9 ± 0.9 nM
IC50 ([2]; low aTc (1 nm), read-out: IC50 against PfYRS knockdown line): 0.5 ± 0.1 nM
IC50 ([2]; no aTc, read-out: IC50 against PfYRS knockdown line): 0.3 ± 0.1 nM
Fold change in IC50 (high aTc/ no aTc), PfYRS knockdown line ([2]; high aTc 50 nM): 13
